# Assay results: patent publication US10660890B2, “Treatment of polycystic diseases with an HDAC6 inhibitor” (NATIONAL INSTITUTES OF HEALTH (NIH), U.S. DEPT. OF HEALTH …, priority 2013, dated 2020)
# Assays:
# [1] = system: Male PKC-1 rats; assay: Kidney cyst volume in male PCK-1 rats, oral gavage 12 weeks; type: in vivo, rat; details: oral gavage once daily for 12 weeks; histological analysis
# Description: Male PKC-1 rats (4 weeks old, n=12) were treated by oral gavage once daily with the indicated dose of compounds for 12 weeks. The animals were sacrificed and kidneys were removed and fixed in formalin. The volume of cysts in the kidneys was measured by histological analysis (see FIG. 7). As a comparison, 6 rats were sacrificed at 4 weeks to measure the starting volume of renal cysts (control).
# [2] = system: PCK rat cholangiocytes; assay: Proliferation assay, PCK rat cholangiocytes (MTS / cell counting); type: cell-based; details: for reduction of proliferation of PCK cholangiocytes: day 3, MTS
# Source text: For in vitro experiments, cholangiocytes were isolated from control rats, PCK rats (an animal model for […], LaRusso N F: Development and characterization of polarized primary cultures of rat intrahepatic bile duct epithelial cells, Lab Invest 1996, 74:303-313), healthy human beings and ADPKD patients (Masyuk et al. Biliary exosomes influence cholangiocyte regulatory mechanisms and proliferation through interaction with primary cilia, Am J Physiol Gastrointest Liver Physiol (2010) 299:G990-999; O'Hara et al. Cholangiocyte N-Ras protein mediates lipopolysaccharide-induced interleukin 6 secretion and proliferation, J Biol Chem (2011) 286:30352-30360; Banales et al. Up-regulation of microRNA 506 leads to decreased Cl(-)/HCO(3) (-) anion exchanger 2 expression in biliary epithelium of patients with primary biliary cirrhosis, Hepatology (2012) 56(2):687-97). Cholangiocytes were cultured in Collagen-I-coated flasks (BD Biocoat). All cell lines were incubated in NRC Media at 37° C., 5% CO2, 100% humidity. NRC Media contains Dulbecco's modified Eagle medium/F12 with the following additions: 0.01 mL/mL Minimum Essential Media (MEM) nonessential amino acids, 0.01 mL/mL lipid concentrate, 0.01 mL/mL MEM vitamin solution, 2 mmol/L L-glutamine, 0.05 mg/mL soybean trypsin inhibitor, 0.01 mL/mL insulin/transferring/selenium-S, 5% fetal bovine serum, […] bovine pituitary extract, 25 ng/mL epidermal growth factor, 393 ng/mL dexamethasone, […] 3,3-,5-triiodo-L-thyronine, 4.11 µg/mL forskolin, and 1% penicillin-streptomycin. […] The drug vehicle, DMSO, was suspended in NRC Media as a control. Cell proliferation was assessed with the CellTiter 96 AQueous One Solution (MTS; Promega) and/or counting cells using the Cellometer Auto T4 Cell Counter (Nexcelom Bioscience).
# [3] = system: human ADPKD cholangiocytes; assay: 3-day proliferation assay, human ADPKD cholangiocytes; type: cell-based; details: 3-day proliferation assay (FIG. 5A)
# Source text: FIG. 5A depicts a human ADPKD 3-day proliferation assay showing decreased proliferation induced by both HDAC6 specific inhibitors, tubastatin-A and tubacin.
# (§1) For in vitro experiments, cholangiocytes were isolated from control rats, PCK rats (an animal model for ARPKD; Vroman B, LaRusso N F: Development and characterization of polarized primary cultures of rat intrahepatic bile duct epithelial cells, Lab Invest 1996, 74:303-313), healthy human beings and ADPKD patients (Masyuk et al. Biliary exosomes influence cholangiocyte regulatory mechanisms and proliferation through interaction with primary cilia, Am J Physiol Gastrointest Liver Physiol (2010) 299:G990-999; O'Hara et al. Cholangiocyte N-Ras protein mediates lipopolysaccharide-induced interleukin 6 secretion and proliferation, J Biol Chem (2011) 286:30352-30360; Banales et al. Up-regulation of microRNA 506 leads to decreased Cl(−)/HCO(3) (−) anion exchanger 2 expression in biliary epithelium of patients with primary biliary cirrhosis, Hepatology (2012) 56(2):687-97).
# Cholangiocytes were cultured in Collagen-I-coated flasks (BD Biocoat). All cell lines were incubated in NRC Media at 37° C., 5% CO2, 100% humidity. […]
# [4] = system: biliary cysts freshly isolated from PCK rats; assay: 3D-culture cyst growth in collagen matrix; type: cell-based, rat; details: after four days
# Description: Freshly isolated bile ducts from PCK rats were embedded in a rat-tail type I Collagen matrix (BD Biosciences) and grown in the presence or absence of 10 μmol/L Tubastatin A and 2 μmol/L Tubacin. Images of the growing cysts were taken every day over a period of 5 days and cyst size was measured with the software “Image J” (National Institute of Health). The circumferential areas for each cystic structure was compared to day 0 to calculate percentages of growth as previously described (see Muff et al. Development and characterization of a cholangiocyte cell line from the PCK rat, an animal model of Autosomal Recessive Polycystic Kidney Disease, Lab Invest 2006, 86:940-950; Masyuk et al. Octreotide inhibits hepatic cystogenesis in a rodent model of polycystic liver disease by reducing cholangiocyte adenosine 3′,5′-cyclic monophosphate, Gastroenterology (2007) 132:1104-1116 27; Lee et al. MicroRNA15a modulates expression of the cell-cycle regulator Cdc25A and affects hepatic cystogenesis in a rat model of polycystic kidney disease, J. Clin. Invest. (2008) 118:3714-3724 28. Gradilone et al. Activation of Trpv4 reduces the hyperproliferative phenotype of cystic cholangiocytes from an animal model of ARPKD, Gastroenterology (2010) 139:304-314 e302).
# [5] = system: acetylated α-tubulin; assay: Western blot, acetylated α-tubulin in PCK cholangiocytes; type: cell-based, rat
# Description: (§2) PCK cholangiocytes were treated with 20 μM Tubastatin A or 2 μM Tubacin, lysed and used for Western blotting. […] Actin was used as a loading control. FIG. 3B depicts representative images of Western blots (n=3) showing HDAC6 inhibitors increase the amount of phospho- and acetyl-β-catenin compared to untreated cells using total-β-catenin as loading control. […] (*p<0.05).
# Protein isolated from cultured control rat and PCK rat cholangiocytes were analyzed. Cells were scrapped, resuspended in Phosphate Buffered Saline (PBS) with Protease Inhibitors, Sodium Orthovanadate and Phenylmethanesulfonylfluoride (PMSF), sonicated and equal amounts of sample protein were diluted in Laemmli Sample Buffer (Biorad) and mercaptoethanol. […]
# (§3) For a better understanding of the mechanisms that are responsible for the inhibition of PCK cholangiocyte proliferation and cyst growth in 3D culture, cultured PCK cholangiocytes were treated with tubastatin-A and tubacin and the amount of acetylated α-tubulin and β-catenin was determined by Western blotting.
# [6] = system: β-catenin; assay: Western blot, β-catenin (total, phospho-, acetyl-) in PCK cholangiocytes; type: cell-based, rat
# Description: as §2
# (§4) Protein isolated from cultured control rat and PCK rat cholangiocytes were analyzed. Cells were scrapped, resuspended in Phosphate Buffered Saline (PBS) with Protease Inhibitors, Sodium Orthovanadate and Phenylmethanesulfonylfluoride (PMSF), sonicated and equal amounts of sample protein were diluted in Laemmli Sample Buffer (Biorad) and mercaptoethanol. After SDS polyacrylamide gel electrophoresis, SDS-PAGE, proteins were transferred to nitrocellulose membranes, blocked, and then incubated with the following primary antibodies: HDAC6 (Santa Cruz Biotechnology, D-11, 1:500), acetylated-α-tubulin (Sigma Aldrich, 1:2000), β-catenin (Cell Signaling Technology, (D10A8) XP® Rabbit mAb; 1:1000), Phospho-β-Catenin (Ser33/37/Thr41) (Cell Signaling Technology, 1:1000), acetyl-β-catenin (Cell Signaling Technology, 1:1000), c-myc (Santa Cruz Biotechnology, 1:500), cyclin D1 (Santa Cruz Biotechnology, 1:500), and actin (Sigma Aldrich, 1:5000). The membranes were incubated overnight at 4° C., washed and incubated for 1 hour at room temperature with horseradish perodixase-conjugated (1:5000, Invitrogen) or IRdye 680 or 800 (1:15000, Odyssey) corresponding secondary antibody. The ECL system or Odyssey Licor Scanner was used for protein detection and the Gel-Pro Analyzer 6.0 software was used for densitometry analysis.
# as §3
# [7] = system: cyclin D1; assay: Western blot, cyclin D1 in PCK cholangiocytes; type: cell-based, rat; details: 2 μM Tubacin
# Description: as §2
# as §4, with “The membranes were incubated overnight at 4° C., washed and incubated for 1 hour at room temperature with horseradish perodixase-conjugated (1:5000, Invitrogen) or IRdye 680 or 800 (1:15000, Odyssey) corresponding secondary antibody. The ECL system or Odyssey Licor Scanner was used for protein detection and the Gel-Pro Analyzer 6.0 software was used for densitometry analysis.” left out
# [8] = system: c-myc; assay: Western blot, c-myc in PCK cholangiocytes; type: cell-based, rat; details: 2 μM Tubacin
# Description: as §2
# as §4, with “The membranes were incubated overnight at 4° C., washed and incubated for 1 hour at room temperature with horseradish perodixase-conjugated (1:5000, Invitrogen) or IRdye 680 or 800 (1:15000, Odyssey) corresponding secondary antibody. The ECL system or Odyssey Licor Scanner was used for protein detection and the Gel-Pro Analyzer 6.0 software was used for densitometry analysis.” left out
# [9] = system: histone-3; assay: Western blot, histone-3 acetylation in PCK cholangiocytes; type: cell-based, rat; details: 2 μM Tubacin
# Description: as §2
# as §4, with “The membranes were incubated overnight at 4° C., washed and incubated for 1 hour at room temperature with horseradish perodixase-conjugated (1:5000, Invitrogen) or IRdye 680 or 800 (1:15000, Odyssey) corresponding secondary antibody. The ECL system or Odyssey Licor Scanner was used for protein detection and the Gel-Pro Analyzer 6.0 software was used for densitometry analysis.” left out
# [10] = system: β-catenin mRNA; assay: RT-PCR, β-catenin mRNA in PCK cholangiocytes; type: cell-based, rat; details: 2 uM tubacin; over time
# Description: as §2
# RNA was isolated from control and PCK rat cholangiocytes with TRIZOL reagent (Invitrogen). cDNA was obtained using First Srand cDNA Synthesis (Invitrogen) reagents and HDAC6 primers (forward primer: 5′-TCAGCGCAGTCTTATGGATG-3′ (SEQ ID NO.: 1); reverse primer: 5′-GCGGTGGATGGAGAAATAGA-3′, SEQ ID NO.: 2) were purchased from Integrated DNA Technologies. β-catenin mRNA expression was analyzed using the TaqMan Gene Expression Assay (Assay ID Rn00584431_g1) following the manufacturer directions. The samples were normalized to 18S rRNA.
# [11] = system: normal (NRC) cholangiocytes; assay: Proliferation assay, normal rat cholangiocytes (NRC); type: cell-based; details: 2, 4, and 8 μmol/L (FIG. 4A)
# Source text: as §1
# Cholangiocytes were cultured in Collagen-I-coated flasks (BD Biocoat). […]
# Control and PCK rat cholangiocytes were cultured on Collagen-I-coated flasks (BD Biocoat) using NRC Media, detached with 0.25% Trypsin-EDTA (GIBCO), transferred to Collagen-I-coated 96-well plates (10 000 cells/well) and incubated at 37° C., 5% CO2, 100% humidity. […] Cell proliferation was assessed with the CellTiter 96 AQueous One Solution (MTS; Promega) and/or counting cells using the Cellometer Auto T4 Cell Counter (Nexcelom Bioscience).
# [12] = system: β-catenin; assay: Immunofluorescence of β-catenin in PCK cholangiocytes; type: cell-based, rat; details: nucleus and cytoplasm (FIG. 6B)
# [13] = system: PCK rat; assay: PCK rat model of polycystic liver disease, cystic area and fibrosis; type: in vivo
# Source text: Bar=2500 μm. FIG. 4C, quantification analysis of cystic area expressed as percentage of total parenchyma area. *p<0.05.
# The PCK rat model was used because the genetic mutation in this animal is orthologous to that found in human ARPKD. These animals express many of the characteristics of human […] (Lager D J, et al., Kidney Internat 59: 126-136, 2001; Harris, Curr Opin Nephrol Hypertens 11:309-314, 2002). The animals carrying this mutation present with both kidney and liver fibrocystic disease and these animals live long enough to facilitate long-term treatment protocols (Gattone V. H., et al., Nat Med (2003) 9: 1323-1326; Tones V. E., et al., Nat Med (2004) 10:363-364; Masyuk T. V., et al., Gastroenterology (2007) 132:1104-1116, 2007. Female animals show more severe liver disease than male animals.
# The efficacy of the Compound A-1 was then tested in a PCK rat, an animal model of polycystic liver disease.
# [14] = 2 μM Tubacin, total-β-catenin as loading control
structure (smiles),measurement,setting,value
O=C(NO)c1cnc(NC2(c3ccccc3)CCC(F)(F)CC2)nc1 [Compound C-2],cyst formation in vivo (volume of cysts in the kidneys),[1],decrease cyst formation
CN1CCc2c(c3ccccc3n2Cc2ccc(C(=O)NO)cc2)C1 [tubastatin A],reduction of proliferation of PCK cholangiocytes,[2]; 5 μM,2.5 folds
same,reduction of proliferation of PCK cholangiocytes,[2]; 10 μM,3.5 folds
same,reduction of proliferation of PCK cholangiocytes,[2]; 20 μM,4.15 folds
same,decrease of proliferation of cultured human ADPKD cholangiocytes,[3],85%
same,reduction of cyst growth compared to untreated cysts,[4]; 10 μM,131%
same,increase of acetylated α-tubulin level compared to untreated cells,[5]; 20 μM Tubastatin A,13 fold
same,decrease of β-catenin level,[6]; 20 μM Tubastatin A,2.2 fold
"O=C(CCCCCCNC(=O)c1cnc(N(c2ccccc2)c2ccccc2Cl)nc1)NO [Compound B-1, 2-((2-chlorophenyl)(phenyl)amino)-N-(7-(hydroxyamino)-7-oxoheptyl)pyrimidine-5-carboxamide]",cyst formation in vivo (volume of cysts in the kidneys),[1],decrease cyst formation
O=C(CCCCCCC(=O)Nc1ccc([C@H]2O[C@@H](CSc3nc(-c4ccccc4)c(-c4ccccc4)o3)C[C@@H](c3ccc(CO)cc3)O2)cc1)NO [tubacin],reduction of PCK cholangiocyte proliferation,"[2]; tubacin, 3 day time period (FIG. 2B)",2.94 folds
same,decrease of proliferation of cultured human ADPKD cholangiocytes,[3],16%
same,reduction of cyst growth compared to untreated cysts,[4]; 2 μM,125%
same,increase of acetylated α-tubulin level compared to untreated cells,[5]; 2 μM Tubacin,2.3 fold
same,decrease of β-catenin level,[6]; 2 μM Tubacin,5 fold
same,amount of acetyl-β-catenin compared to untreated cells,[6]; [14],increase
same,amount of phospho-β-catenin compared to untreated cells,[6]; [14],increase
same,β-catenin protein expression over time,[6]; 2 uM tubacin,decrease in β-catenin protein expression over time
same,cyclin D1 level,[7],decreasing
same,c-myc level,[8],decreasing
same,acetylation levels of histone-3,[9],remained unaffected
same,β-catenin mRNA,[10],remained stable
"O=C(CCCCCCNC(=O)c1cnc(N(c2ccccc2)c2ccccc2)nc1)NO [Compound A-1, 2-(diphenylamino)-N-(7-(hydroxyamino)-7-oxoheptyl)pyrimidine-5-carboxamide]",PCK cells proliferation,"[2]; 2, 4, and 8 μmol/L (FIG. 4A)",inhibited by the Compound A-1 in a dose dependent manner
same,proliferation of normal cells,[11],no significant effect
same,β-catenin expression in PCK cells (fluorescence quantification),[12],reduced β-catenin expression
same,reduction of liver fibrosis,[13]; p<0.001,30.5%
same,reduction of kidney cyst area,[13]; vs vehicle,39.0%
same,reduction of liver cyst area,[13]; vs vehicle,28.4%
